Patent US10112918B2, “15-oxospiramilactone derivatives, preparation method and uses thereof” (Kunming Institute of Botany, The Chinese Academy of Sciences, priority 2013, dated 2018)
Like-named read-outs stand apart in the source and are kept apart here.

Assays:
Type in all cases: cell-based
[1] = tested on: HL-60 (human promyelocytic leukemia cells); assay: MTT inhibition of tumor cell growth, HL-60; details: Homo sapiens
Protocol: (§1) 1. Inoculating cells: the culture medium DMEM or RMPI1640 containing 10% fetal bovine serum was used to prepare a single cell suspension, and the cell suspension was inoculated to a 96-well plate at 5000-10000 cells per well (100 μl for each well); Adherent cells were inoculated and cultured for 12 h in advance. HL-60 (human promyelocytic leukemia cells), SMMC-7721 (human hepatoma cells), A-549 (Human lung adenocarcinoma cells), MCF-7 (human breast cancer cells), SW-480 (human colon cancer cells) were purchased from the Cell Bank of the Chinese Academy of Sciences, Shanghai.
(§2) 2. The solution of the compound to be tested (40 μM for primary screening; 5 concentrations were set for gradient re-screening for the compounds which achieve about 50% inhibition of tumor cell growth at 40 μM) was added, the final volume of each well was 200 μl, and triplicate wells were set for each test.
(§3) 3. Coloration: After culturing at 37° C. for 48 h, MTT solution (20 μl) was added to each well. After incubation for another 4 h, the culture was stopped. The supernatant in each well was pipetted and discarded, and 200 μl SDS solution (10%) was added to each well. Incubation was performed overnight (at 37° C.), to completely dissolve the crystal.
(§4) 4. Colorimetric assay: ELISA Reader (Bio-Rad 680) was used to obtain the light absorption for each well at a wavelength of 595 nm, the results were recorded. A cell growth curve was plotted with the concentration as abscissa and the cell survival percentage as ordinate. The two-point method (Reed and Muench method) was used to calculate the IC50 of the compound.

[2] = tested on: SMMC-7721 (human hepatoma cells); assay: MTT inhibition of tumor cell growth, SMMC-7721; details: Homo sapiens
Protocol: as §1, §2, §3, §4

[3] = tested on: A-549 (Human lung adenocarcinoma cells); assay: MTT inhibition of tumor cell growth, A-549; details: Homo sapiens
Protocol: as §1, §2, §3, §4

[4] = tested on: MCF-7 (human breast cancer cells); assay: MTT inhibition of tumor cell growth, MCF-7; details: Homo sapiens
Protocol: as §1, §2, §3, §4

[5] = tested on: SW-480 (human colon cancer cells); assay: MTT inhibition of tumor cell growth, SW-480; details: Homo sapiens
Protocol: as §1, §2, §3, §4

[6] = tested on: Wnt signaling pathway (Top-Flash reporter gene); assay: Top-Flash Wnt reporter gene assay in HEK293T cells with Wnt3a conditioned medium; details: Homo sapiens, HEK-293T, 6 h
Protocol: HEK293T cells were cultured in DMEM containing 10% fetal bovine serum (Invitrogen) at 37° C., 5% CO2. The cells were passaged every other day. The density was retained at 70˜80% during passage. L cell line (CRL-2647, purchased from the gene bank of ATCC, the US) and the control cell line (CRL-2648, purchased from ATCC, US), which stably secreted mouse Wnt3a protein, were cultured in DMEM containing 50 ug/ml G418 and 10% fetal bovine serum, at 37° C., 5% CO2. When the cells grew to a density of about 70%, the medium was replaced with DMEM containing 10% fetal bovine serum. After continuous culture for 4 days, the culture was collected and centrifuged, and the supernatant was kept so that the Wnt conditioned medium was obtained. After titration assay, the conditioned medium was quick-frozen in liquid nitrogen, and placed at −80° C. for long-term storage, so that the titer was kept unchanged.
The cells were seeded to a 48-well plate at a density of […] cells per well, and transfected 20 h later. The reagents for plasmid transfection were calculated based on the amount in each well of the 48-well plate as following: the total amount of plasmid was 125 ng/well; the plasmid was first added to a serum-free medium (25 μL/well) and mixed well; PLUS reagent (Invitrogen) was then added in an amount of 0.5 μL/well and mixed well, then stood for 15 min; Lipofectamine (Invitrogen) liposome was added in an amount of 0.5 μL/well to serum-free DMEM medium (25 μL/well), and then mixed with the solution containing the plasmid and the PLUS, and stood for 15 min. The cells were cultured in serum-free DMEM medium (100 μL/well), and the final mixture of plasmid, PLUS and Lipofectamine were added to the cells. After incubation for 3 h, the transfection was stopped by the medium containing 10% fetal bovine serum (200 μL/well).
The HEK293T cells used for activity assay of the report gene were transfected by the method as shown in 2). Activity assay of Wnt reporter gene: the amount of plasmid for transfection was 5 ng/well for TOP-flash and 5 ng/well for GFP plasmid as internal standard, with lacZ added to reach a total amount of 125 ng/well. […] After treating for 6 h, Boehringer Mannheim Luci-ferase Assay Kit was used to lyse cells (200 μL/well). 50 μL from each well was pipetted into a 96-well plate. The indensity of GFP protein in the cell lysate was measured by fluorimeter FL600 (BIO-TEK Inc. Winooski, Vt.), and taken as internal standard for cell transfection efficiency. 10 μL substrate of luciferase was then added to each well, and the activity of luciferase was measured by Micro Lumate Plus (Perkin Elmer Inc. Wellesley, Mass.) luminometer. Finally, GFP indensity was used as internal standard to calibrate the activity of luciferase, i.e. the activity of Wnt reporter gene.
Calculation of IC50 (taking the calculation of IC50 of the Wnt signaling pathway for example): background (the activity as measured in the groups treated with a conditioned medium containing DMSO only) was subtracted from the reporter gene activity as measured in the groups treated by Wnt3a conditioned medium with or without the compound to be tested at different concentrations; and the obtained value was defined as the activity of the reporter gene induced by Wnt or the residual activity of the reporter gene after adding the compound to be tested. The residual activity was normalized by the activity induced by Wnt to get the relative residual activity. Then combine with the concentrations of the compound to be tested to plot a linear graph, and a dose-effect curve was fitted based on 4-parameter logistic fit. IC50 of the Wnt signaling pathway is determined as the concentration at which the relative residual activity is 0.5.

[7] = HL-60, Table 7 (first), alkaloid derivatives, 48 h
[8] = SMMC-7721, Table 7 (first), alkaloid derivatives, 48 h
[9] = A549, Table 7 (first), alkaloid derivatives, 48 h
[10] = MCF7, Table 7 (first), alkaloid derivatives, 48 h
[11] = SW480, Table 7 (first), alkaloid derivatives, 48 h, read-out: IC50 SW-480
[12] = read-out: IC50 (μM), inhibitory activity on the Wnt signaling pathway
[13] = HL-60, 48 h, Table 1, 7-hydroxy derivatives of S-3
[14] = SMMC-7721, 48 h, Table 1, 7-hydroxy derivatives of S-3
[15] = A549, 48 h, Table 1, 7-hydroxy derivatives of S-3
[16] = MCF7, 48 h, Table 1, 7-hydroxy derivatives of S-3
[17] = SW480, 48 h, Table 1, 7-hydroxy derivatives of S-3, read-out: IC50 SW-480
[18] = Table 7 (second), derivatives modified on 7-hydroxyl of S-3, HEK293T, Wnt3a conditioned medium, read-out: IC50 (μM), inhibitory activity on the Wnt signaling pathway
[19] = HL-60, 48 h, Table 4, derivatives obtained by reduction of the lactonic ring
[20] = SMMC-7721, 48 h, Table 4, derivatives obtained by reduction of the lactonic ring
[21] = A549, 48 h, Table 4, derivatives obtained by reduction of the lactonic ring
[22] = MCF7, 48 h, Table 4, derivatives obtained by reduction of the lactonic ring
[23] = SW480, 48 h, Table 4, derivatives obtained by reduction of the lactonic ring, read-out: IC50 SW-480
[24] = Table 8, HEK293T, Wnt3a conditioned medium, read-out: IC50 (μM), inhibitory activity on the Wnt signaling pathway
[25] = Table 10, HEK293T, Wnt3a conditioned medium, read-out: IC50 (μM), inhibitory activity on the Wnt signaling pathway
[26] = Table 9, HEK293T, Wnt3a conditioned medium, read-out: IC50(μM), inhibitory activity on the Wnt signaling pathway

Structure (SMILES): C=C1C(=O)[C@]23CC[C@H]1CC2[C@@]12CCC[C@@]4(C)C(=O)N[C@@H]1O[C@@H]3CC24 (some centres unmarked) [Compound 84]
- IC50 [1, 7]: 18600 nM
- IC50 [2, 8]: 15700 nM
- IC50 [3, 9]: 19000 nM
- IC50 [4, 10]: 15700 nM
- IC50 [5, 11]: 14200 nM
- IC50 [6, 12]: 60.6 ± 3.09 µM

Structure (SMILES): C=C1C(=O)[C@]23CC[C@H]1CC2[C@@]12CCC[C@@](C)(COC1=O)C2C[C@H]3OC=O (some centres unmarked) [Compound 1a]
- IC50 [1, 13]: 2390 nM
- IC50 [2, 14]: 1670 nM
- IC50 [3, 15]: 2180 nM
- IC50 [4, 16]: 2740 nM
- IC50 [5, 17]: 1960 nM
- IC50 [6, 18]: 18.3 ± 0.66 µM

Structure (SMILES): C=C1C(=O)C23CC[C@H]1CC2[C@]1(COS(C)(=O)=O)CCC[C@@](C)(COS(C)(=O)=O)C1CC3=O (some centres unmarked) [Compound 73a]
- IC50 [1, 19]: 3970 nM
- IC50 [2, 20]: 770 nM
- IC50 [3, 21]: 2890 nM
- IC50 [4, 22]: 2360 nM
- IC50 [5, 23]: 2570 nM
- IC50 ([5]; SW480, 48 h, Table 6, 7-carbonyl derivatives, read-out: IC50 SW-480, 7-carbonyl derivatives): 2570 nM
- IC50 [6, 24]: 43 ± 5.35 µM

Structure (SMILES): C=C1C(=O)[C@]23CC[C@H]1CC2[C@@]12CCC[C@@]4(C)C5OCCN5C1O[C@@H]3CC42 (some centres unmarked) [Compound 77]
- IC50 [1, 7]: 1340 nM
- IC50 [2, 8]: 1040 nM
- IC50 [3, 9]: 2030 nM
- IC50 [4, 10]: 670 nM
- IC50 [5, 11]: 1970 nM
- IC50 [6, 12]: > 60 µM

Structure (SMILES): C=C1C(=O)[C@]23CC[C@H]1CC2[C@]1(COC(=O)N2CCOCC2)CCC[C@@](C)(COS(C)(=O)=O)C1CC3=O (some centres unmarked) [Compound 59]
- IC50 [1, 19]: 4180 nM
- IC50 [2, 20]: 3950 nM
- IC50 [3, 21]: 4210 nM
- IC50 [4, 22]: 3310 nM
- IC50 [5, 23]: 2940 nM
- IC50 [6, 25]: 43.8 ± 3.05 µM

Structure (SMILES): C=C1C(=O)C23CC[C@H]1CC2[C@]1(COC(C)=O)CCC[C@@](C)(COC(C)=O)C1[C@H](CN1CCOCC1)C3=O (some centres unmarked) [Compound 50]
- IC50 ([1]; HL-60, 48 h, Table 2, derivatives having potential Michael reaction acceptor): 6300 nM
- IC50 ([2]; SMMC-7721, 48 h, Table 2, derivatives having potential Michael reaction acceptor): 10800 nM
- IC50 ([3]; A549, 48 h, Table 2, derivatives having potential Michael reaction acceptor): 4690 nM
- IC50 ([4]; MCF7, 48 h, Table 2, derivatives having potential Michael reaction acceptor): 4230 nM
- IC50 ([5]; SW480, 48 h, Table 2, derivatives having potential Michael reaction acceptor, read-out: IC50 SW-480): 6570 nM
- IC50 [6, 26]: 56 ± 0.92 µM

Structure (SMILES): C=C1C(=O)C23CC[C@H]1CC2[C@]1(COS(C)(=O)=O)CCC[C@@](C)(COS(C)(=O)=O)C1C[C@H]3O (some centres unmarked) [Compound 72a]
- IC50 [1, 19]: 1370 nM
- IC50 [2, 20]: 930 nM
- IC50 [3, 21]: 1860 nM
- IC50 [4, 22]: 1550 nM
- IC50 [5, 23]: 1850 nM
- IC50 ([5]; SW480, 48 h, Table 6, 7-hydroxyl derivatives and controls, read-out: IC50 SW-480, 7-hydroxyl derivatives): 2230 nM
- IC50 [6, 24]: 12.6 ± 1.04 µM

Structure (SMILES): C=C1C(=O)C23CC[C@H]1CC2[C@@]12CCC[C@@](C)(COC1=O)C2C[C@H]3OC(=O)c1ccco1 (some centres unmarked) [Compound 1n]
- IC50 [1, 13]: 4010 nM
- IC50 [2, 14]: 3050 nM
- IC50 [3, 15]: 2140 nM
- IC50 [4, 16]: 3110 nM
- IC50 [5, 17]: 2220 nM
- IC50 [6, 18]: 18.9 ± 2.48 µM

Structure (SMILES): C=C1C(=O)C23CC[C@H]1CC2[C@]1(COS(C)(=O)=O)CCC[C@@](C)(COC(=O)N2CCOCC2)C1CC3=O (some centres unmarked) [Compound 61]
- IC50 [1, 19]: 2700 nM
- IC50 [2, 20]: 2180 nM
- IC50 [3, 21]: 2320 nM
- IC50 [4, 22]: 2050 nM
- IC50 [5, 23]: 3370 nM
- IC50 [6, 25]: 32.3 ± 3.01 µM

Structure (SMILES): C=C1C(=O)C23CC[C@@H](CC2[C@]2(COC(=O)c4cccs4)CCC[C@@](C)(COC(=O)c4cccs4)C12)C(=C)C3=O (some centres unmarked) [Compound 65]
- IC50 ([1]; HL-60, 48 h, Table 5, derivatives having double Michael reaction acceptor): 290 nM
- IC50 ([2]; SMMC-7721, 48 h, Table 5, derivatives having double Michael reaction acceptor): 220 nM
- IC50 ([3]; A549, 48 h, Table 5, derivatives having double Michael reaction acceptor): 350 nM
- IC50 ([4]; MCF7, 48 h, Table 5, derivatives having double Michael reaction acceptor): 330 nM
- IC50 ([5]; SW480, 48 h, Table 5, derivatives having double Michael reaction acceptor, read-out: IC50 SW-480): 160 nM
- IC50 ([5]; SW480, 48 h, Table 6, double Michael reaction acceptor derivatives, read-out: IC50 SW-480, derivatives having double Michael reaction acceptor): 260 nM
- IC50 [6, 26]: 7.68 ± 0.19 µM

Structure (SMILES): C=C1C(=O)C23CC[C@@H](CC2[C@@]24CCC[C@@](C)(COC2)C14)C(=C)[C@@H]3O (some centres unmarked) [Compound 33]
- IC50 [6, 12]: 12.1 ± 1.25 µM

Structure (SMILES): C=C1C(=O)[C@@]23CC[C@@H](CC2[C@@]24CCC[C@@](C)(COC2)C14)C1(CO1)C3=O (some centres unmarked) [Compound 29]
- IC50 [6, 26]: > 60 µM
